Results: patent US9493432B2, “Cyclopentylbenzamide derivatives and their use for the treatment of psychotic and cognitive disorders” (Takeda Pharmaceutical Company Limited, priority 2013, dated 2016)
pIC50: −log10 of the molar value.

Columns and labels:
[1] = biological target: human orexin receptor 2 (Homo sapiens (Human), UniProt O43614); assay: Orexin antagonist activity, intracellular calcium FLIPR assay (orexin receptor 2); format: cell-based; settings: RBL-2H3 cells stably expressing human orexin receptor 2; Ca2+ dye FLIPR; compound 15 minutes before orexin-A at approximately 80% maximal response; read-out: Human Orexin2R IC50
Protocol: (§1) Orexin antagonist activity was determined by measuring changes in intracellular calcium levels using a Ca^2+ sensitive fluorescent dye. The changes in fluorescent signal were monitored by Fluorescent Imaging Plate Reader (FLIPR™) technology available from Molecular Devices, LLC, U.S.A. Orexin mediated increases in intracellular Ca^2+ concentration were readily detected upon activation with orexin-A. Twenty-four hours prior to the assay, RBL-2H3 cells stably expressing either human orexin receptor 1 or human orexin receptor 2 were seeded in cell culture medium in black, clear-bottom 384-well plates (commercially available from Corning Inc., U.S.A.) and grown overnight at 37° C., 5% CO2. On the day of the assay, cell culture media was removed and cells were loaded with Calcium 5 Dye (commercially sold by Molecular Devices, LLC, U.S.A.) for 1 hour at 37° C., 5% CO2. Test compounds (at 10 point half log concentration response curves from 10 μM) were added to cells for 15 minutes prior to the addition of orexin-A to all wells, to achieve a final concentration that produces approximately an 80% maximal response. The IC50 values were determined from ten point concentration response curves. Curves were generated using the average of two wells for each data point.

[2] = biological target: human orexin receptor 1 (Homo sapiens (Human), UniProt O43613); assay: Orexin antagonist activity, intracellular calcium FLIPR assay (orexin receptor 1); format: cell-based; settings: RBL-2H3 cells stably expressing human orexin receptor 1; Ca2+ dye FLIPR; compound 15 minutes before orexin-A at approximately 80% maximal response; read-out: Human Orexin1R IC50
Protocol: as §1

Sequence of human orexin receptor 2 (O43614 whole entry): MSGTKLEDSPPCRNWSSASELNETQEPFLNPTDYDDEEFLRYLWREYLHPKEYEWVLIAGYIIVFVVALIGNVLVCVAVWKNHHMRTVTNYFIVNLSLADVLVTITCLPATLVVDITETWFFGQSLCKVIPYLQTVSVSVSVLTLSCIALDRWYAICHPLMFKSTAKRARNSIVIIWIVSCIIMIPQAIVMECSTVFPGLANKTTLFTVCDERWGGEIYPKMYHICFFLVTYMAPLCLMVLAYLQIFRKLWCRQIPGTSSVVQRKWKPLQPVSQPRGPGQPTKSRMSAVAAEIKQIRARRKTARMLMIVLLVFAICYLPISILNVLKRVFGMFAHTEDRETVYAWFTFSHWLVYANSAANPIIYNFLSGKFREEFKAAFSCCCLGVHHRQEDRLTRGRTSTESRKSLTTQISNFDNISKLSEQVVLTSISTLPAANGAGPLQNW
Sequence of human orexin receptor 1 (O43613 whole entry): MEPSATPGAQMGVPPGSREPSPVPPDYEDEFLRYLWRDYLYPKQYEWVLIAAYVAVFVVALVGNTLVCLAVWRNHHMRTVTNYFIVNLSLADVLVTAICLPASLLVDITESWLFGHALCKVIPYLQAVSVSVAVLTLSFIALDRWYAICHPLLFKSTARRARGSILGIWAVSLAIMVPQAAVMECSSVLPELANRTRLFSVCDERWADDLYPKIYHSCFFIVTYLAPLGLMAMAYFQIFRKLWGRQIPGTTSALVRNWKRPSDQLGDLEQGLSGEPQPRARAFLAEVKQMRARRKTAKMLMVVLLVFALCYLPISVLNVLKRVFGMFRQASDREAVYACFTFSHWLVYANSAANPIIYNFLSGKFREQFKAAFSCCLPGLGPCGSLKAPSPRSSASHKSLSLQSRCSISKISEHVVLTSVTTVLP

| Compound | pIC50 [1] | pIC50 [2] |
| --- | --- | --- |
| 5-Methyl-N-((1S,2S)-2-(quinoxalin-2-ylamino)cyclopentyl)-2-(2H-1,2,3-triazol-2-yl) benzamide [Example 21] | 5.29 | – |
| COc1cccc(OC)c1C(=O)N[C@@H]1COC[C@H]1Nc1nc2ccc(F)cc2s1 (relative stereo) [Example 65, trans-N-{4-[(6-Fluoro-1,3-benzothiazol-2-yl)amino]oxolan-3-yl}-2,6-dimethoxybenzamide] | < 5.00 | 7.54 |
| Cc1ccc(-n2nccn2)c(C(=O)N[C@@H]2COC[C@@H]2Cc2nc3ccccc3s2)c1 (relative stereo) [Example 102, cis-N-[4-(1,3-Benzothiazol-2-ylmethyl)oxolan-3-yl]-5-methyl-2-(2H-1,2,3-triazol-2-yl)benzamide] | < 5.00 | 7.10 |
| Cc1ccc(-n2nccn2)c(C(=O)NC2CCCC2Cc2ccc3ccccc3n2)c1 (single isomer, unassigned) [Example 61, 5-Methyl-N-[2-(quinolin-2-ylmethyl)cyclopentyl]-2-(2H-1,2,3-triazol-2-yl)benzamide] | < 5.00 | 7.46 |
| Cc1ccc(-n2nccn2)c(C(=O)NC2CCCC2Cc2ccc3ccccc3n2)c1 (single isomer, unassigned) [Example 62, 5-Methyl-N-[2-(quinolin-2-ylmethyl)cyclopentyl]-2-(2H-1,2,3-triazol-2-yl)benzamide] | < 5.00 | < 5.00 |
| COc1cccc(OC)c1C(=O)NC1C[C@@H](O)CC1Nc1nc2ccc(Cl)cc2s1 (stereo in doubt) [Example 25, N-[(1S,2R,4R)-2-[(6-Chloro-1,3-benzothiazol-2-yl)amino]-4-hydroxycyclopentyl]-2,6-dimethoxybenzamide] | 6.89 | 6.47 |
| COc1cccc(OC)c1C(=O)N[C@H]1CC(F)C[C@H]1Nc1nc2ccc(Cl)cc2s1 (stereo in doubt) [Example 26, N-[(1S,2R)-2-[(6-Chloro-1,3-benzothiazol-2-yl)amino]-4-fluorocyclo-pentyl]-2,6-dimethoxybenzamide] | < 5.00 | 7.19 |
| O=C(NC1CCC[C@@H]1Nc1nc2ccc(F)cc2s1)c1c(Cl)cccc1Cl (stereo in doubt) [Example 52, 2,6-Dichloro-N-[(1S,2S)-2-[(6-fluoro-1,3-benzothiazol-2-yl)amino]-cyclopentyl]benzamide] | – | 6.57 |
| Cc1noc(-c2ccccc2C(=O)NC2CCC[C@@H]2Nc2nc3ccc(F)cc3o2)n1 (stereo in doubt) [Example 99, N-[(1S,2S)-2-[(6-Fluoro-1,3-benzoxazol-2-yl)amino]cyclopentyl]-2-(3-methyl-1,2,4-oxadiazol-5-yl)benzamide] | < 5.00 | 7.92 |
| COc1cccc(OC)c1C(=O)N[C@H]1CCC[C@H]1Nc1cnc2ccccc2n1 [Example 1, 2,6-Dimethoxy-N-[(1S,2R)-2-[(quinoxalin-2-yl)amino]cyclopentyl]-benzamide] | 7.01 | 9.08 |
| COc1cccc(OC)c1C(=O)N[C@H]1CCC[C@@H]1Nc1cnc2ccccc2n1 [Example 2, 2,6-Dimethoxy-N-((1S,2S)-2-(quinoxalin-2-ylamino)cyclopentyl)benzamide] | 5.19 | 7.44 |
| COc1cccc(OC)c1C(=O)N[C@H]1CCC[C@@H]1Nc1nc2ccc(F)cc2s1 [Example 3, N-[(1S,2S)-2-[(6-Fluoro-1,3-benzothiazol-2-yl)amino]cyclopentyl]-2,6-dimethoxybenzamide] | 5.12 | 8.38 |
| COc1cccc(OC)c1C(=O)N[C@H]1CCC[C@@H]1Nc1nc2ccccc2s1 [Example 4, N-[(1S,2S)-2-[(1,3-Benzothiazol-2-yl)amino]cyclopentyl]-2,6-dimethoxybenzamide] | < 5.00 | 7.92 |
| COc1cccc(OC)c1C(=O)N[C@H]1CCC[C@H]1Nc1nc2ccccc2s1 [Example 5, N-[(1S,2R)-2-[(1,3-Benzothiazol-2-yl)amino]cyclopentyl]-2,6-dimethoxybenzamide] | 6.29 | 7.92 |
| Cc1ccc(-n2nccn2)c(C(=O)NC2CCCC2Cc2nc3ccc(Cl)cc3s2)c1 (centres unmarked) [Example 33, N-{2-[(6-Chloro-1,3-benzothiazol-2-yl)methyl]cyclopentyl}-5-methyl-2-(2H-1,2,3-triazol-2-yl)benzamide] | – | 7.29 |
| O=C(N[C@H]1CCC[C@@H]1Nc1nc2ccc(F)cc2s1)c1cc(F)ccc1-c1ncccn1 [Example 42, 5-Fluoro-N-[(1S,2S)-2-[(6-fluoro-1,3-benzothiazol-2-yl)amino]cyclopentyl]-2-(pyrimidin-2-yl)benzamide] | – | 7.62 |
| O=C(N[C@H]1CCC[C@@H]1Nc1nc2ccc(F)cc2s1)c1cc(F)ccc1-n1ccnn1 [Example 45, 5-Fluoro-N-[(1S,2S)-2-[(6-fluoro-1,3-benzothiazol-2-yl)amino]cyclopentyl]-2-(1H-1,2,3-triazol-1-yl)benzamide] | – | 7.10 |
| O=C(N[C@H]1CCC[C@@H]1Nc1nc2ccc(F)cc2s1)c1ccccc1OC(F)F [Example 55, 2-(Difluoromethoxy)-N-[(1S,2S)-2-[(6-fluoro-1,3-benzothiazol-2-yl)amino]-cyclopentyl]benzamide] | – | 6.33 |
| COc1cccc(C(=O)N[C@H]2CCC[C@@H]2Nc2nc3ccc(F)cc3s2)c1 [Example 56, N-[(1S,2S)-2-[(6-Fluoro-1,3-benzothiazol-2-yl)amino]cyclopentyl]-3-methoxybenzamide] | – | 6.27 |
| Cc1cccc(C(=O)N[C@H]2CCC[C@@H]2Nc2nc3ccc(F)cc3s2)c1 [Example 57, N-[(1S,2S)-2-[(6-Fluoro-1,3-benzothiazol-2-yl)amino]cyclopentyl]-3-methylbenzamide] | – | 6.11 |
| O=C(N[C@H]1CCC[C@@H]1Nc1nc2ccc(F)cc2s1)c1ccccc1C1CC1 [Example 58, 2-Cyclopropyl-N-[(1S,2S)-2-[(6-fluoro-1,3-benzothiazol-2-yl)amino]-cyclopentyl]benzamide] | – | 6.06 |

Second part, the compound after the results:

| pIC50 [1] | pIC50 [2] | Compound |
| --- | --- | --- |
| < 5.00 | 7.66 | O=C(NC1COCC1Nc1nc2ccc(F)cc2s1)c1ccccc1-n1nccn1 (single isomer, unassigned) [Example 100, trans-N-{4-[(6-Fluoro-1,3-benzothiazol-2-yl)amino]oxolan-3-yl}-2-(2H-1,2,3-triazol-2-yl)benzamide] |
| 5.42 | 6.14 | O=C(NC1COCC1Nc1nc2ccc(F)cc2s1)c1ccccc1-n1nccn1 (single isomer, unassigned) [Example 101, trans-N-{4-[(6-Fluoro-1,3-benzothiazol-2-yl)amino]oxolan-3-yl}-2-(2H-1,2,3-triazol-2-yl)benzamide] |
| 6.20 | 6.58 | O=C(NC1CC(F)(F)CC1Nc1nc2ccc(F)cc2s1)c1ccccc1-n1nccn1 (single isomer, unassigned) [Example 103, N-{4,4-Difluoro-2-[(6-fluoro-1,3-benzothiazol-2-yl)amino]cyclopentyl}-2-(2H-1,2,3-triazol-2-yl)benzamide] |
| 5.35 | 7.89 | O=C(NC1CC(F)(F)CC1Nc1nc2ccc(F)cc2s1)c1ccccc1-n1nccn1 (single isomer, unassigned) [Example 104, N-{4,4-Difluoro-2-[(6-fluoro-1,3-benzothiazol-2-yl)amino]cyclopentyl}-2-(2H-1,2,3-triazol-2-yl)benzamide] |
| 5.45 | – | O=C(NC1CC(F)(F)CC1Nc1nc2ccc(Cl)cc2s1)c1ccccc1-n1nccn1 (single isomer, unassigned) [Example 105, N-{2-[(6-Chloro-1,3-benzothiazol-2-yl)amino]-4,4-difluorocyclopentyl}-2-(2H-1,2,3-triazol-2-yl)benzamide] |
| 6.36 | – | O=C(NC1CC(F)(F)CC1Nc1nc2ccc(Cl)cc2s1)c1ccccc1-n1nccn1 (single isomer, unassigned) [Example 106, N-{2-[(6-Chloro-1,3-benzothiazol-2-yl)amino]-4,4-difluorocyclopentyl}-2-(2H-1,2,3-triazol-2-yl)benzamide] |
| 5.40 | 6.60 | Cc1ccccc1C(=O)NC1CCC[C@@H]1Nc1nc2ccc(F)cc2s1 (stereo in doubt) [Example 51, N-[(1S,2S)-2-[(6-Fluoro-1,3-benzothiazol-2-yl)amino]cyclopentyl]-2-methylbenzamide] |
| 6.59 | 8.30 | O=C(N[C@H]1CCCC1Nc1nc2ccc(F)cc2s1)c1ccccc1-n1nccn1 (stereo in doubt) [Example 75, N-[(1S,2R)-2-[(6-Fluoro-1,3-benzothiazol-2-yl)amino]cyclopentyl]-2-(2H-1,2,3-triazol-2-yl)benzamide] |
| < 5.00 | 6.11 | O=C(NC1CCC[C@@H]1Nc1nc2ccncc2s1)c1ccccc1-n1nccn1 (stereo in doubt) [Example 97, N-[(1S,2S)-2-({[1,3]Thiazolo[5,4-c]pyridin-2-yl}amino)cyclopentyl]-2-(2H-1,2,3-triazol-2-yl)benzamide] |
| 5.33 | – | O=C(N[C@H]1CCC[C@@H]1Nc1nc2ccc(Cl)cc2s1)c1ccccc1-n1nccn1 [Example 91, N-[(1S,2S)-2-[(6-Chloro-1,3-benzothiazol-2-yl)amino]cyclopentyl]-2-(2H-1,2,3-triazol-2-yl)benzamide] |
